The test system of experiment [1] is Bacillus cereus (B. cereus). The experiment can be described thus: In vitro antibacterial activity, progressive double dilutions, culture turbidity. It counts as cell-based. The source says: (§1) The growth of bacteria was estimated by measuring the turbidity of the culture, as previously reported. […] The pH of the media was adjusted to 7.0.
For experiment [2], the system named is Bacillus subtilis (B. subtilis). The description is as above. It counts as cell-based.
Description: as §1

The subject of experiment [3] is Escherichia coli (E. coli). The experiment is described as above. The format is cell-based.
Description: as §1

The subject of experiment [4] is Staphylococcus aureus (S. aureus). Described as above. It counts as cell-based.
Description: as §1

Experiment [5] in a line: Reduction of hydrogen peroxide. As to conditions: compound 0.1 mM, 20 min, phosphate buffer pH 7.4. On the procedure: In vitro antioxidant activity studies for 1–4 and their free ligands were performed in order to determine their ability to scavenge DPPH, and ABTS free radicals and to reduce H2O2 and was compared with the antioxidant capacity of reference compounds (NDGA, BHT, trolox and ascorbic acid).
The absorbance was measured at 230 nm after 20 min. The antioxidant activity of the compounds was expressed as percent reduction of H2O2 (%H2O2). Ascorbic acid (or vitamin C) was used as an appropriate standard.

Experiment [6] has as its target T1, BSA (bovine serum albumin) (Bos taurus, UniProt P02769).
T1 construct: purchased
The experiment in a line: Serum albumin tryptophan fluorescence quenching. The format is binding. As to the method: (§2) The serum albumin (SA) binding study was performed by tryptophan fluorescence quenching experiments using BSA (3 μM) or HSA (3 μM) in buffer (containing 1 mM trisodium citrate and 150 mM NaCl at pH 7.0).
(§3) The Stern-Volmer and Scatchard graphs are used in order to study the interaction of a quencher with serum albumins. According to Stern-Volmer quenching equation (Equation (2)), where Io = the initial tryptophan fluorescence intensity of SA, I = the tryptophan fluorescence intensity of SA after the addition of the quencher, kq = the quenching constant, KSV = the Stern-Volmer constant, τo = the average lifetime of SA without the quencher, [Q] = the concentration of the quencher. KSV (M^–1) can be obtained by the slope of the diagram Io/I versus [Q], and subsequently the quenching constant (kq, M^–1s^–1) is calculated from Equation (3) with τ0 = 10^–8 s as fluorescence lifetime of tryptophan in SA.
(§4) From the Scatchard equation (5) ΔΙ/Ιο/Q=nK−kΔΙ/Ιο where, n is the number of binding sites per albumin and K is the SA-binding constant, K (in M^–1) is calculated from the slope in plots ΔΙ/Ιο/Q versus ΔΙ/Ιο and n is given by the ratio of y intercept to the slope.

Experiment [7] has as its target T2, HSA (human serum albumin) (Homo sapiens, UniProt P02768).
T2 construct: purchased
The experiment in a line: Serum albumin tryptophan fluorescence quenching. It counts as binding. As to the method:
as §2, §3, §4

Where [8] appears, read: value in parentheses, mean ± SD, read-out: IC50.

These results are taken from PMC9823356, “Inhibition of Cancer Cell Proliferation and Bacterial Growth by Silver(I) Complexes Bearing a CH3-Substituted Thiadiazole-Based Thioamide” (Molecules, 2023).

Where two headings read alike, the source gives them in different places.

T2 sequence (P02768 25-609): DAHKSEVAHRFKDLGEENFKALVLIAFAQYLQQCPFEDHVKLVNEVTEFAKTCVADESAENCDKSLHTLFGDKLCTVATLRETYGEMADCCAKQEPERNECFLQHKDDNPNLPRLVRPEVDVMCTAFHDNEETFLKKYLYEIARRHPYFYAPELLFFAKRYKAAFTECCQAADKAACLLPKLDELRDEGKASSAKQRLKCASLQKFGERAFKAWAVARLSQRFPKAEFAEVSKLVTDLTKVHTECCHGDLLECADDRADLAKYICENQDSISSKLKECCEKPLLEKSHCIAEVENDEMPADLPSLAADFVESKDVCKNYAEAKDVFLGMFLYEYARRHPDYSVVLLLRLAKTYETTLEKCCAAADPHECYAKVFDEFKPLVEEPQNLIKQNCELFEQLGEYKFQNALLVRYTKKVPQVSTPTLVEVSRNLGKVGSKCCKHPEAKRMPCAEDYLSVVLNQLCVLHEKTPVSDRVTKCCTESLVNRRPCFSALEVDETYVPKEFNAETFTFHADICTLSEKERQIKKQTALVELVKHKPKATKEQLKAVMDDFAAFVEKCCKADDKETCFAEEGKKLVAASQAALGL
T1 sequence (P02769 25-607): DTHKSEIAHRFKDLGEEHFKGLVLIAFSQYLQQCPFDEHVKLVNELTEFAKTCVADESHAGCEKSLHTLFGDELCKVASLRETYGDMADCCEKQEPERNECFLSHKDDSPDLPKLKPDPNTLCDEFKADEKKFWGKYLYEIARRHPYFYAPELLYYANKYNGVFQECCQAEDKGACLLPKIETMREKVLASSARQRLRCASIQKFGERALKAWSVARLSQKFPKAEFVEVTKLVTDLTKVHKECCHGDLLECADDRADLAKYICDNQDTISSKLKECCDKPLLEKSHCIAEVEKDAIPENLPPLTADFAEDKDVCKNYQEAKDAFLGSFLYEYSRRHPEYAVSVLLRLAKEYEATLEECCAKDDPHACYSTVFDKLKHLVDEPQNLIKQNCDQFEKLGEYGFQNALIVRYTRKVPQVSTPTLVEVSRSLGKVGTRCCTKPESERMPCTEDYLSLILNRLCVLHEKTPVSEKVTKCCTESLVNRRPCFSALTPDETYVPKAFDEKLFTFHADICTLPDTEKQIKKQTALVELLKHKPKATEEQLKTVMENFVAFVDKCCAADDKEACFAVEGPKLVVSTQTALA

One may read the IC50 as the concentration at which inhibition is half-maximal. In the case of [Ag(mtdztH)(dppe)(NO3)]n [Compound 4], the IC50 was 5 µg/mL in experiment [1]; 4.6 ± 0.7 µM in experiment [1] (setting [8]); 4.9 µg/mL in experiment [2]; 4.5 ± 0.8 µM in experiment [2] (setting [8]); 11 µg/mL in experiment [3]; 15.4 ± 2.4 µM in experiment [3] (setting [8]). Further, the concentration for half-maximal inhibition (IC50) in experiment [4] turned out to be 8 µg/mL; in experiment [4] (setting [8]) it was 7.3 ± 1.6 µM. For the same substance, the MIC in experiment [1] is 50 µg/mL; in experiment [1] (value in parentheses) it was 45 μΜ; in experiment [2], 30 µg/mL; in experiment [2] (value in parentheses) it was 27 μΜ; in experiment [3] (ampicillin reference against E.coli (BL21)), “higher than 100 μg/mL”; in experiment [3] (value in parentheses), 91 μΜ. In addition, the MIC in experiment [4] was 50 µg/mL; in experiment [4] (value in parentheses) it was 45 μΜ. Also, in experiment [5], the “H2O2 reducing ability (%H2O2)” value was found to be 35.17±1.96%. Further, the “decrease in BSA fluorescence” value in experiment [6] (λex 295 nm, λem 350 nm) was 44.5%. Besides, the emission-quenching constant kq is reported as 7.15 (±0.40) × 10^12 M^−1s^−1 in experiment [6] (τ0 = 10^–8 s) and 5.11 (±0.37) × 10^11 M^−1s^−1 in experiment [7] (τ0 = 10^–8 s). Also, in experiment [7] (Scatchard equation), the “binding constant K” value is given as 7.21 (±0.53) × 10^4 M^−1. Further, in experiment [7] (λex 295 nm, λem 338 nm), the HSA emission quenching is reported as 23%.
